29 molecules from patent US12479818B2, “Treatment of fibrosis with IRE1 small molecule inhibitors” (Cornell University, priority 2019, dated 2025) can be followed below.

Each structure is given as a SMILES string.

The experiment addresses IRE1a (Homo sapiens, UniProt O75460). The experiment is described as follows: IRE1a Endoribonuclease Nanoluciferase Assay (XBP1 luciferase reporter in 293T cells). The experiment is classed as cell-based. Further details: endogenous in cells; host or cells: 293T. The note with it: XBP1 nanoluciferase reporter in 293T cells, ER stressor; tested as the salt named. The method, then: Compounds disclosed herein were assessed for disruption of IRE1 signaling using a IRE1a Endoribonuclease Nanoluciferase Assay. […] About 24 hours later, the cells were transfected with Effectene. In a 15 mL tube, the following was added: 2 ug XBP1 luciferase reporter plasmid (PGK-Luc2-P2A-XBP1u-Nanoluciferase-PEST); 300 ul EC buffer; and 16 ul Enhancer, followed by incubation at room temp for 5 minutes. […] 2.6 mL cDMEM media was added. Old media was aspirated from the cells, followed by addition of 7 mL fresh media. Full transfection mixture was added dropwise to cells. Cells were incubated for 6 hours, followed by trypsinization, centrifugation and resuspension in 11 mL fresh cDMEM media. 100 μL of cells were plated per a well in a 96 well plate. A day later, ER stressors of choice +/− inhibitors were added. To harvest, media was aspirated from cells completely, then 50 uL 1× passive lysis buffer (Promega: E1941) was added per well and put on shaker (300 rpm) for 30 minutes at room temperature. […] 15 uL OneGlo (nanoluciferase kit, Promega N1630) was added. Plates were spun down, placed on shaker (300 rpm) for 10 minutes. Plates were read on luminometer, 1000 ms integration time per well. 15 uL Stop and Glo (nanoluciferase kit) was added. Plates were spun down, placed on shaker (300 rpm) for 10 minutes. Plates were read on luminometer, 1000 ms second integration time per well.
For orientation: In a reporter assay the amount or activity of a reporter protein is the signal.

Sequence of IRE1a (O75460 19-977): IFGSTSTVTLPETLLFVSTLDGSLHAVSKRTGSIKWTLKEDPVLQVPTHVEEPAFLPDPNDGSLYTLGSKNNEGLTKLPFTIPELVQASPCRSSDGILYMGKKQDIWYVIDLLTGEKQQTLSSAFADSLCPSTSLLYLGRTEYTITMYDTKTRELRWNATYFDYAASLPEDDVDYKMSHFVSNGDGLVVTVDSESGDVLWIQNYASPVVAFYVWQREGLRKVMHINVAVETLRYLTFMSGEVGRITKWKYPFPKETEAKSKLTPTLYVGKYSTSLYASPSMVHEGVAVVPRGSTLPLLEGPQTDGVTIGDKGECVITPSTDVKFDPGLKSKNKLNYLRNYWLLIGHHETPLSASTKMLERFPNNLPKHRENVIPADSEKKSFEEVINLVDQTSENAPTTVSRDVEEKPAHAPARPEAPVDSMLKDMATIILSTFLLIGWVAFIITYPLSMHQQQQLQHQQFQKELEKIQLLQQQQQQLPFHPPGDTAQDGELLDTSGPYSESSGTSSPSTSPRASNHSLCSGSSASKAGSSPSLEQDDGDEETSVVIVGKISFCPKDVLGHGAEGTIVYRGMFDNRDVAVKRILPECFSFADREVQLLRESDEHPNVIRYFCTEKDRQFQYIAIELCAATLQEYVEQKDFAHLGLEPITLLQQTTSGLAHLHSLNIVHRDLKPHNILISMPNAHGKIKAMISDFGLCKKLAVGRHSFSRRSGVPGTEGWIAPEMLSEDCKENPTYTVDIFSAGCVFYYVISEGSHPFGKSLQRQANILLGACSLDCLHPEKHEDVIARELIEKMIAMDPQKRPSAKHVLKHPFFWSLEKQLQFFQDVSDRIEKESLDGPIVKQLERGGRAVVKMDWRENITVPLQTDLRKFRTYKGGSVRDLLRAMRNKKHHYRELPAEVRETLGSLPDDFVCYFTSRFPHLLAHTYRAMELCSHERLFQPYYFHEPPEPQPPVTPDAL

`CCc1cc(-c2cc(OC)c(NS(=O)(=O)c3ccccc3Cl)nn2)cc2cnc(N[C@H]3CC[C@H](N)CC3)nc12` [Compound 66, N-(6-(2-(((1r,4r)-4-aminocyclohexyl)amino)-8-ethylquinazolin-6-yl)-4-methoxypyridazin-3-yl)-2-chlorobenzene-sulfonamide]: the EC50 – broadly, the concentration at which the effect is half-maximal – is 50 to 100 nM.

Regarding `CCc1cc(-c2nnc(NS(=O)(=O)c3ccccc3Cl)cc2C)cc2cnc(N[C@H]3CC[C@H](N)CC3)nc12` [Compound 67, N-(6-(2-(((lr,4r)-4-aminocyclohexyl)amino)-8-ethylquinazolin-6-yl)-5-methylpyridazin-3-yl)-2-chlorobenzene-sulfonamide], the EC50 is 5 to 50 nM.

In the case of `Cc1nc(NS(=O)(=O)c2ccccc2Cl)ncc1-c1ccc2nc(N[C@H]3CC[C@H](N)CC3)ncc2c1` [Compound 68, N-(5-(2-(((1r,4r)-4-aminocyclohexyl)amino)quinazolin-6-yl)-4-methylpyrimidin-2-yl)-2-chlorobenzene-sulfonamide], the EC50 is 50 to 100 nM.

With `CCc1cc(-c2ccc(NS(=O)(=O)c3ccccc3Cl)c(F)c2)cc2cnc(N[C@H]3CC[C@H](N(C)C)CC3)nc12` [Compound 69], the EC50 was less than 5 nM.

For `CCc1cc(-c2ccc(NS(=O)(=O)c3ccccc3Cl)c(F)c2C)cc2cnc(N[C@H]3CC[C@H](N)CC3)nc12` [Compound 71, N-(4-(2-(((1r,4r)-4-aminocyclohexyl)amino)-8-ethylquinazolin-6-yl)-2-flouro-3-methylphenyl)-2-chlorobenzene-sulfonamide], the EC50 was less than 5 nM.

Consider `CCc1cc(-c2ccc(NS(=O)(=O)c3ccccc3Cl)c(F)c2)cc2cnc(N[C@@H]3CCC[C@H](N)C3)nc12` [Compound 72, N-(4-(2-(((1R,3S)-3-aminocyclohexyl)amino)-8-ethylquinazolin-6-yl)-2-fluorophenyl)-2-chlorobenzene-sulfonamide], for which the EC50 was in the range of 100 to 10000 nM.

For the molecule `CCc1cc(-c2ccc(NS(=O)(=O)c3ccccc3Cl)c(F)c2)cc2cnc(N[C@@H]3CC[C@@H](N)[C@H](C)C3)nc12` [Compound 74], the EC50 was less than 5 nM.

`N[C@H]1CCC[C@@H](Nc2ncc3cc(-c4ccc(NS(=O)(=O)c5ccccc5Cl)c(F)c4)ccc3n2)C1` [Compound 75]: the EC50 was 100 to 10000 nM.

As for `O=S(=O)(Nc1ccc(-c2ccc3nc(N[C@H]4CCCNC4)ncc3c2)cc1F)c1ccccc1Cl` [Compound 76, (S)-2-chloro-N-(2-fluoro-4-(2-(piperidin-3-ylamino)quinazolin-6-yl)phenyl) benzene-sulfonamide], the EC50 lay within 5 to 50 nM.

`N[C@@H]1CC[C@@H](Nc2ncc3cc(-c4ccc(NS(=O)(=O)c5ccccc5Cl)c(F)c4)ccc3n2)C1` [Compound 77, N-(4-(2-(((1R,3R)-3-aminocyclopentyl)amino)quinazolin-6-yl)-2-fluorophenyl)-2-chlorobenzene-sulfonamide]: the EC50 lay within 5 to 50 nM.

As for `CCc1cc(-c2ccc(NS(=O)(=O)c3ccccc3Cl)c(F)c2)cc2cnc(N[C@@H]3CC[C@@H](N)C3)nc12` [Compound 78], the EC50 was less than 5 nM.

Turning to `CCc1cc(-c2ccc(NS(=O)(=O)c3ccccc3Cl)c(F)c2)cc2cnc(N[C@@H]3CC[C@H](N)C3)nc12` [Compound 79, N-(4-(2-(((1R,3S)-3-aminocyclopentyl)amino)-8-ethylquinazolin-6-yl)-2-fluorophenyl)-2-chlorobenzene-sulfonamide], the EC50 lay within 5 to 50 nM.

Turning to `NC12CCC(Nc3ncc4cc(-c5ccc(NS(=O)(=O)c6ccccc6Cl)c(F)c5)ccc4n3)(CC1)CC2` [Compound 81, N-(4-(2-((4-aminobicyclo[2.2. 2]octan-1-yl)amino)quinazolin-6-yl)-2-fluorophenyl)-2-chlorobenzene-sulfonamide], the EC50 was less than 5 nM.

For the molecule `CCc1cc(-c2ccc(NS(=O)(=O)c3ccccc3Cl)c(F)c2)cc2cnc(N[C@H]3CC4C[C@H](N)CC4C3)nc12` (some centres unmarked) [Compound 82], the 50% effective concentration (EC50) was 5 to 50 nM.

For `CCc1cc(-c2ccc(NS(=O)(=O)c3ccccc3Cl)c(F)c2)cc2cnc(N[C@H]3CC4C[C@H](N)CC4C3)nc12` (some centres unmarked) [Compound 83, N-(4-(2-(((2r,5r)-5-aminoocta-hydropentalen-2-yl)amino)-8-ethylquinazolin-6-yl)-2-fluorophenyl)-2-chlorobenzene-sulfonamide], the EC50 lay in the range of 50 to 100 nM.

For the molecule `CCc1cc(-c2ccc(NS(=O)(=O)c3ccccc3Cl)c(F)c2)cc2cnc(N[C@H]3CC4C[C@@H](N)CC4C3)nc12` (some centres unmarked) [Compound 84, N-(4-(2-(((2s,5s)-5-aminoocta-hydropentalen-2-yl)amino)-8-ethylquinazolin-6-yl)-2-fluorophenyl)-2-chlorobenzene-sulfonamide], the EC50 is 5 to 50 nM.

For the molecule `N[C@H]1CC2C[C@@H](Nc3ncc4cc(-c5ccc(NS(=O)(=O)c6ccccc6Cl)c(F)c5)ccc4n3)CC2C1` (some centres unmarked) [Compound 85, N-(4-(2-(((2s,5s)-5-aminoocta-hydropentalen-2-yl)amino)quinazolin-6-yl)-2-fluorophenyl)-2-chlorobenzene-sulfonamide], the EC50 was in the range of 100 to 10000 nM.

Consider `NC12CCC(Nc3ncc4cc(-c5ccc(NS(=O)(=O)c6ccccc6Cl)c(F)c5)ccc4n3)(CC1)C2` [Compound 86, N-(4-(2-((4-aminobicyclo[2.2. 1]heptan-1-yl)amino)quinazolin-6-yl)-2-fluorophenyl)-2-chlorobenzene-sulfonamide], for which the EC50 was in the range of 50 to 100 nM.

Regarding `CCc1cc(-c2ccc(NS(=O)(=O)c3ccccc3Cl)c(F)c2)cc2cnc(NC34CCC(N)(CC3)CC4)nc12` [Compound 87, N-(4-(2-((4-aminobicyclo[2.2. 2]octan-1-yl)-amino)-8-ethylquinazolin-6-yl)-2-fluorophenyl)-2-chlorobenzene-sulfonamide], the EC50 is less than 5 nM.

Take `CCc1cc(-c2ccc(NS(=O)(=O)c3ccccc3Cl)c(F)c2)cc2cnc(N[C@H]3CC[C@H](N4CCCC4)CC3)nc12` [Compound 88, 2-chloro-N-(4-(8-ethyl-2-(((lr,4r)-4-(pyrrolidin-1-yl)cyclohexyl)amino)quinazolin-6-yl)-2-fluorophenyl) benzene-sulfonamide]: the EC50 is less than 5 nM.

With `N[C@H]1CC[C@H](Nc2ncc3cc(-c4nnc(NS(=O)(=O)c5ccccc5Cl)s4)ccc3n2)CC1` [Compound 89, N-(5-(2-(((lr,4r)-4-aminocyclohexyl)amino)quinazolin-6-yl)-1,3,4-thiadiazol-2-yl)-2-chlorobenzene-sulfonamide], the EC50 is 100 to 10000 nM.

As to `Cc1cc2nc(N[C@H]3CC[C@H](N)CC3)ncc2cc1-c1ccc(NS(=O)(=O)c2ccccc2Cl)c(F)c1` [Compound 90, N-(4-(2-(((1r,4r)-4-aminocyclohexyl)amino)-7-methylquinazolin-6-yl)-2-fluorophenyl)-2-chlorobenzene-sulfonamide], the EC50 was 5 to 50 nM.

Regarding `CCc1cc(-c2cnc(NS(=O)(=O)c3ccccc3Cl)cc2OC)cc2cnc(N[C@H]3CC[C@H](N)CC3)nc12` [Compound 92, N-(5-(2-(((1r,4r)-4-aminocyclohexyl)amino)-8-ethylquinazolin-6-yl)-4-methoxypyridin-2-yl)-2-chlorobenzene-sulfonamide], the EC50 was 100 to 10000 nM.

Regarding `CCc1cc(-c2cnc(NS(=O)(=O)c3ccccc3Cl)c(F)c2)cc2cnc(N[C@H]3CC[C@H](N(C)C)CC3)nc12` [Compound 95, 2-chloro-N-(5-(2-(((1r,4r)-4-(dimethylamino)cyclohexyl)amino)-8-ethylquinazolin-6-yl)-3-fluoropyridin-2-yl)benzenesulfonamide], the EC50 was less than 5 nM.

Consider `CCc1cc(-c2cc(F)c(NS(=O)(=O)c3ccccc3Cl)nc2C)cc2cnc(N[C@H]3CC[C@H](N(C)C)CC3)nc12` [Compound 97, 2-chloro-N-(5-(2-(((1r,4r)-4-(dimethylamino)cyclohexyl)amino)-8-ethylquinazolin-6-yl)-3-fluoro-6-methylpyridin-2-yl)benzenesulfonamide], for which the EC50 was less than 5 nM.

`CCc1cc(-c2ncc(NS(=O)(=O)c3ccccc3Cl)nc2OC)cc2cnc(N[C@H]3CC[C@H](N)CC3)nc12` [Compound 98, N-(5-(2-(((1r,4)-4-aminocyclohexyl)amino)-8-ethylquinazolin-6-yl)-6-methoxypyrazin-2-yl)-2-chlorobenzenesulfonamide]: the EC50 is less than 5 nM.

In the case of `CCc1cc(-c2ccc(NS(=O)(=O)c3ccccc3Cl)nc2OC)cc2cnc(N[C@H]3CC[C@H](N(C)C)CC3)nc12` [Compound 99, 2-chloro-N-(5-(2-(((1r,4r)-4-(dimethylamino)cyclohexyl)amino)-8-ethylquinazolin-6-yl)-6-methoxypyridin-2-yl)benzenesulfonamide], the EC50 is less than 5 nM.

As to `COc1nc(NS(=O)(=O)c2ccccc2Cl)ccc1-c1cc2cnc(N[C@H]3CC[C@H](N(C)C)CC3)nc2cc1C` [Compound 108, 2-chloro-N-(5-(2-(((1r,4r)-4-(dimethylamino)cyclohexyl)amino)-7-methylquinazolin-6-yl)-6-methoxypyridin-2-yl)benzenesulfonamide], the EC50 was less than 5 nM.

With `CCc1cc(-c2ccc(NS(=O)(=O)c3ccccc3Cl)nc2OC)cc2cnc(N[C@H]3CC[C@H](NC)CC3)nc12` [Compound 116, 2-chloro-N-(5-(8-ethyl-2-(((1r,4r)-4-(methylamino)cyclohexyl)amino)quinazolin-6-yl)-6-methoxypyridin-2-yl)benzenesulfonamide], the EC50 is less than 5 nM.
